Drawing on patent publication US7135293B2, “Method of detecting a nucleic acid using a fluorescent group-containing carbodiimide as a label” (Nisshinbo Industries, Inc., priority 1999, dated 2006), this text covers Solubility in water for one compound.

The nature of this series: Water solubility test.

`CC1(C)C(/C=C/C2=C(Oc3ccccc3)C(=C/C=C3/N(CCCCS(=O)(=O)O)c4ccccc4C3(C)C)/CCC2)=[N+](CCCNC(=S)NCCC[N+](C)(C)CCCCCCN=C=NCCC[N+]2(C)CCOCC2)c2ccc3ccccc3c21.I` [Compound (2)] registered a Solubility in water of 55 µg/µL.
